Data taken from ChEMBL document CHEMBL3507680, “University of Dundee, Gates Library screen for HepG2 cell viability”.

assay: Human HepG2 cell viability assay in 384 well format; format: toxicity, cell-based; design: dose 125 nL, time 70.5 hour; cytotoxicity at 70.5 h: concentration not given beside the values; settings: HepG2 cells, read-out: Inhibition

Row | Compound | cytotoxicity at 70.5 h
1 | CCCc1ccc2oc(C(=O)N3CCC(O)CC3)c(C)c2c1 | 6.68%
2 | Cc1ncsc1CCN(C)C1CCN(c2ncnc3[nH]cnc23)CC1 | -6.66%
3 | CCCc1nnc(NC(C)c2ccc3c(c2)OCCO3)o1 (centres undefined) | 19.1%
4 | CCn1c(C)nnc1SCCNc1cc(COC)ncn1 | -22.7%
5 | CCC(C(=O)N1CCN(S(=O)(=O)N2CCCC2)CC1)n1cccn1 (centres undefined) | -3.42%
6 | CN(Cc1ccc(-n2cccn2)cc1)c1cc(N)nc(N)n1 | 18.4%
7 | CC(C)c1nc(CN(C)C(=O)Cn2nc3ccccc3n2)no1 | -10.4%
8 | O=C(c1ccc2ccccc2c1)C1CCCN(C(=O)Cn2cnnn2)C1 (centres undefined) | -3.65%
9 | Cc1cnc(C)c(N2CCN(CC3CCCO3)CC2)n1 (centres undefined) | -6.94%
10 | O=C(O)[C@@H]1CN(C(=O)CCC(F)(F)F)C[C@H]1c1ccncc1 | -1.6%
11 | CN(Cc1cnn(C)c1)c1nccc(-c2cc(C(=O)O)ccn2)n1 | 18.1%
12 | CNC(C(=O)N1CCC(c2nccn2C(C)C)CC1)c1ccccc1 (centres undefined) | -8.05%
13 | CCCc1n[nH]c(=O)n1Cc1ccc(OC)cc1 | 12.2%
14 | CCCN1CCC(CC(=O)N2CCC(C(O)c3nccn3C)CC2)CC1 (centres undefined) | -11.6%
15 | CCn1nc(CC(C)C)cc1C(=O)N1CCC2(CC1)[C@H](O)C[C@@H]2O | 1.5%
16 | O=C(O)C1(Cc2cccc(Cl)c2)CCCN(c2ncnc3[nH]ccc23)C1 (centres undefined) | -13%
17 | Cc1cc(C)c2nc(C)cc(C(=O)NCc3csc(N(C)C)n3)c2c1 | 27.3%
18 | CS(=O)(=O)N1C[C@H]2CNC[C@@]2(C(=O)NCCCc2ccccc2)C1 | -3.07%
19 | COc1ccc(CN(CC2CCCO2)C(=O)CN2CCOC2=O)cc1 (centres undefined) | -14.7%
20 | CCn1c(Cn2cncn2)nnc1C1CCN(C[C@H]2[C@@H]3CNC[C@@H]32)CC1 | -20.4%
21 | COC(=O)c1ccc(CNC(=O)CN2C[C@@H](NC(C)=O)[C@H](C(C)C)C2)o1 | -6.07%
22 | NC(=O)Cn1ccnc1C1CCCN(Cc2ccccc2OC(F)F)C1 (centres undefined) | -6.45%

Row | Compound | cytotoxicity at 70.5 h
23 | CCc1nc(C)cc(N2CCCC(C(=O)c3ccc(OC)cc3C)C2)n1 (centres undefined) | 6.28%
24 | CCCN1C[C@H]2CC[C@@H]1CN(Cc1ccc(Cn3cccn3)cc1)C2 | -7.61%
25 | CN1CCN(C(=O)N2CCC3(CCCN(C4CCOCC4)C3=O)C2)CC1 (centres undefined) | -0.535%
26 | CCc1ccc(CN2CCN(c3ncc(Cl)cn3)CC2)nc1 | -5.54%
27 | COc1cccc(OCCc2cncc(C(N)=O)c2)c1 | -9.46%
28 | O=C(O)[C@@H]1CN(Cc2cnc(C3CCCCC3)nc2)C[C@H]1C1CC1 | 10.9%
29 | Cc1cc(C(=O)N2CCCCC2c2nc3cc(F)ccc3[nH]2)nn1C (centres undefined) | -6.6%
30 | Cc1ccc(C)c(CN2C[C@H]3CC[C@@H]2CN(C(=O)c2cccnc2)C3)c1 | 1.01%
31 | CCN1CCC(CC(=O)N2CCn3cccc3C2c2cccnc2)CC1 (centres undefined) | 28.5%
32 | Cc1cccc(CN2C[C@@H](CN3CCCN(C)CC3)C[C@H](CO)C2)n1 | -5.2%
33 | Cn1ccnc1CN1CC[C@@H]2[C@@H](CCC(=O)N2CCc2c[nH]cn2)C1 | 27.2%
34 | O=C(c1cnc(Nc2ccccc2)nc1)N1CCC(O)(CO)CC1 | -6.53%
35 | COCCCC1(C(=O)O)CCCN(C(=O)c2ccc(C(C)C)[nH]c2=O)C1 (centres undefined) | -5.84%
36 | CC(C)N1CCCn2nc(C(=O)NCCc3ccccn3)cc2C1 | -9.32%
37 | Cc1cccc(C(=O)N2C[C@H]3CC[C@@H]2CN(S(=O)(=O)N(C)C)C3)n1 | -10.2%
38 | CS(=O)(=O)Nc1ccc2c(c1)NC(=O)CC2c1cnn2cccnc12 (centres undefined) | 17.5%
39 | COc1ncc(C(=O)N(Cc2cnn(C)c2)C(C)C)cn1 | -7.11%
40 | Cc1ccc(CN2C[C@H]3C(=O)N(CC4CC4)C[C@@]3(C(=O)O)C2)c(F)c1F | 9.58%
41 | Cc1ncoc1C(=O)N1CCOC(CC2CCCCC2)C1 (centres undefined) | -5.24%
42 | CC[C@H]1COCCN1C(=O)c1cnc(N2CCN(C)CC2)nc1C | -8.1%
43 | COCCN1CCC(CN(CC2CCCO2)C(=O)C2CCOCC2)CC1 (centres undefined) | -5.33%
44 | Cc1ccccc1N1CCCN(C(=O)CCc2nncn2C)CC1 | -7.29%

Row | Compound | cytotoxicity at 70.5 h
45 | Cc1nccc(N[C@H]2CN(C(=O)CN3CCOCC3)C[C@@H]2C(C)C)n1 | -1.67%
46 | Cc1c(NC(=O)c2cnc[nH]2)cccc1C(=O)NC(C)(C)C | -5.11%
47 | CCOc1c(CNC2CSCCSC2)cccc1OC | 20.2%
48 | CC(C)C[C@H](Nc1nc(C2CCCC2)nc2c1cnn2C)C(N)=O | -6.77%
49 | COc1ccccc1Oc1ncccc1CNC(=O)[C@H](C)O | -6.71%
50 | CCN1CC(C(=O)N2CCc3cc(C(N)=O)n(C)c3C2)CCC1=O (centres undefined) | -6.08%
51 | Cc1ccc([C@@H]2CN(C(=O)CCc3cc(Cl)no3)C[C@H]2N(C)C)cc1 | 11.1%
52 | O=C(COCc1ccccc1)N1CCN(Cc2ccccc2F)C(=O)C1 | -9.08%
53 | Cc1nn(C)c(C)c1CN(C)C(=O)c1cccc(CCC(C)(C)O)c1 | -0.259%
54 | CC(c1ccco1)N(C)Cc1cccc(C(=O)Nc2nccn2C)c1 (centres undefined) | -5.04%
55 | O=C(c1cnn[nH]1)N1CCCC1c1nc2cc(F)ccc2[nH]1 (centres undefined) | -12.1%
56 | COCCC(=O)N1C[C@H](C(C)C)[C@@H](N(C)C)C1 | -14.3%
57 | CCC1CN(C(=O)c2ccccc2C#N)CCN1C(C)C (centres undefined) | 14.9%
58 | CCS(=O)(=O)c1ncc(CN(C)C)n1Cc1ccccc1 | -3.58%
59 | CCn1ncnc1CN1CCOC(Cc2cccc3ccccc23)C1 (centres undefined) | -7.56%
60 | O=C1CCC(C(=O)N2CCC(Cn3cc(C4CCCC4)nn3)CC2)=NN1 | -2.69%
61 | O=S(=O)(N1CCOCC1)N1CCCCC1CCc1ccc(O)cc1 (centres undefined) | -1.47%
62 | COc1ccccc1OCCCN1C(=O)CCNC1=O | 32%
63 | CN(Cc1ccncn1)C(=O)c1cccc(CCC(C)(C)O)c1 | -2.23%
64 | CCOC(=O)CC1CCCCN1C(=O)c1cnc(C)cn1 (centres undefined) | -4.78%
65 | COCCN1CC2(CCCN(C(=O)NCc3ccccc3)C2)CCC1=O (centres undefined) | 0.704%
66 | O=C(c1ccc(-c2nc[nH]n2)cc1)N1CCOC(C(F)(F)F)C1 (centres undefined) | 23.3%

Row | Compound | cytotoxicity at 70.5 h
67 | CCN(C)S(=O)(=O)N1CCCC(c2cccc(C(=O)O)c2)C1 (centres undefined) | -8.54%
68 | Cc1cnccc1NCCn1ccnc1C1CCCCC1 | 0.0765%
69 | COCCn1ccnc1CN1CCc2[nH]cnc2C1c1cnn(C)c1C (centres undefined) | -13.2%
70 | Cc1cc(C)c2c(NCC3(O)CCCCC3)ncnc2n1 | -2.73%
71 | COc1ccc(C(C(=O)O)N2CCN(C3CCCC3)CC2)cc1OC (centres undefined) | 12.5%
72 | CCc1cn[nH]c1C1CCN(c2cc(C)c3cccc(OC)c3n2)CC1 | 0.472%
73 | COCCS(=O)(=O)c1ncc(CN(C)C)n1Cc1ccccc1 | 4.62%
74 | Cc1nc2cc(OCc3nc(C(=O)NC(C)(CO)CO)co3)ccc2s1 | 6.62%
75 | COc1ccc(-n2cccn2)c(CN2CCOCC(CN(C)C)C2)c1 (centres undefined) | 18.8%
76 | COCCn1cncc1Cn1cccc(C(F)(F)F)c1=O | 6.51%
77 | FC(F)(F)c1ccccc1CCC1CCCN(Cc2cscn2)C1 (centres undefined) | 44.3%
78 | CN(Cc1nc(Cc2cccc(C(F)(F)F)c2)no1)C(C1CC1)C1CC1 | -9.87%
79 | CCN(CCN1CCOCC1)C(=O)c1cccnc1 | 4.89%
80 | CCc1nc(N2CCN(Cc3ncccc3C)CC2)c2cnn(C)c2n1 | -4.75%
81 | CC(C(=O)N(C)Cc1noc(C2CCC2)n1)N1CCc2ccccc2C1 (centres undefined) | 23.9%
82 | CC(C)=CCN1C(=O)[C@H]2CC[C@@H]1CN(c1ncccc1F)C2 | -22.9%
83 | O=C(CO)N1CCC2(CC1)CC(=O)N(Cc1cc(F)cc(F)c1)C2 | -1.76%
84 | CCC(CO)N(Cc1cccc(-n2cccn2)c1)Cc1ccccn1 (centres undefined) | 8.06%
85 | CC(c1ccncn1)N(C)S(=O)(=O)NCc1ccccc1 (centres undefined) | 47.6%
86 | CCC(C)N(Cc1sccc1C)C(=O)c1ccc(S(C)(=O)=O)cc1 (centres undefined) | -4.15%
87 | CCOc1ccc(-c2c(-c3ccccc3)ncn2C2CCNC2)cn1 (centres undefined) | -12.8%
88 | OCc1ccc(-c2c(-c3ccccc3)ncn2CCN2CCOCC2)o1 | 16.6%

Row | Compound | cytotoxicity at 70.5 h
89 | CN1CC2(CCN(C(=O)CCc3nc4cccnc4n3C)C2)OC1=O (centres undefined) | 15.3%
90 | COCC(=O)NCC1CCCN(Cc2cc3ccccc3[nH]2)C1 (centres undefined) | -13.5%
91 | CCc1nccc(CN2CCCC(CNC(=O)c3ccccn3)C2)n1 (centres undefined) | -3.62%
92 | Cc1ccc(CSc2nc(N)cc(NCCC(=O)N3CCCC3)n2)cc1 | -4.18%
93 | NCC1Cc2cccc(-c3ccc(O)c(F)c3)c2O1 (centres undefined) | -13.6%
94 | CC(=O)Nc1ccsc1C(=O)N1CC[C@@H]2CC[C@H](C1)N2C | -6.78%
95 | Cc1ccc(N2C[C@H](O)[C@@H](N3CCN(c4ccccn4)CC3)C2)nn1 | -11.3%
96 | Cc1ccccc1N1CCCN(C(=O)CCc2ccncc2)CC1 | -9.24%
97 | Cc1ccc(OC2(C(=O)O)CCN(C(=O)c3ccsc3)CC2)cn1 | -4.13%
98 | CCCN1CCC(CC(=O)NCc2cc(O)ncn2)CC1 | -11.6%
99 | Cc1ccccc1NC(=O)N1CCN(C(=O)C2CC2)[C@@H]2CS(=O)(=O)C[C@@H]21 | -6.63%
100 | Clc1cccc2c1CCN(Cc1nc(CC3CC3)no1)C2 | -5.71%
101 | COc1ccc2[nH]c(CNc3cc(C4CCNCC4)nc(C)n3)cc2c1 | -3.5%
102 | CC(C)=CCN1C[C@H]2CC[C@@H]1CN(Cc1cc(=O)[nH]c(=O)[nH]1)C2 | -3.94%
103 | CCN(CCc1nc2cc(C)ccc2[nH]1)C(=O)COC | -4.93%
104 | Cc1ccc2[nH]c(CN(C)Cc3n[nH]c4c3CCC4)nc2c1 | -3.51%
105 | COc1cccc(OC)c1OCCN1C(=O)CCNC1=O | 26.5%
106 | Cc1ccccc1C(=O)NC[C@@H]1CCN(C(=O)CN2CCCC2)C[C@H]1O | -5.06%
107 | CN(Cc1cnc(N)nc1)C(=O)c1coc(COc2ccccc2)n1 | -2.22%
108 | CC(C)c1nnc(NCc2cc3n(n2)CCNC3)s1 | -8.56%
109 | CC(=O)NCCC1CCCCN1C(=O)c1cccc(CCC(C)(C)O)c1 (centres undefined) | -6.03%
